One molecule from patent publication US11779559B2, “Compositions for treating fungal and bacterial biofilms and methods of using the same” (priority 2017, dated 2023) can be followed below.

Assay [1] concerns bacteria (S. aureus) biofilm and fungal (C. albicans) biofilm. Description: Sustained inhibition biofilm assay, bacterial and fungal taken together. In kind it is cell-based. Conditions: sustained inhibition assay; bacterial and fungal biofilm; 1% amino acid (unless specifically noted); p≤0.001. The protocol: (§1) Two types of biofilm assays were performed: a sustained inhibition assay and a disruption assay. The sustained inhibition assay assesses the compound's ability to prevent biofilm development throughout all stages of biofilm formation, while the disruption assay assesses the compound's ability to break up an existing mature biofilm. These assays are described in detail in the following article: Lohse, M. B., Gulati, M., Valle Arevalo, A., Fishburn, A., Johnson, A. D., and Nobile, C. J. (2017) Assessment and optimizations of Candida albicans in vitro biofilm assays. Antimicrobial Agents and Chemotherapy 61: e02749-16.
(§2) For fungal biofilm assays, all solutions were prepared in RPMI 1640 medium. All bacterial biofilm solutions were prepared in Trypic Soy Broth (TSB), supplemented with 1% glucose (henceforth referred to as TSB-G). All subsequent procedures were performed in a manner that maintained sterility. A solution of each amino acid to be tested was prepared in weight to volume concentrations ranging from 0.1-5.0%. Amino acids were also tested in combinations. Compound solutions were homogenized with gentle agitation in the dark (4° C., 24 hours) before use.
(§3) Fungal strains were streaked on Yeast Peptone Dextrose (YPD) agar plates and incubated at 30° C. for 48 hours. A single colony from each strain to be tested was inoculated into YPD broth and grown for 12 hours, at 30° C., shaking at 225 rpm. For the fungal biofilm inhibition assay, 1 μl of saturated overnight cell culture was added to either 80 μL of RPMI-1640 or RPMI-1640 supplemented with the amino acid compound solution to be tested, in a 384-well plate. […] Media was carefully aspirated and the biofilm was measured by optical density at 600 nm. […] Media was carefully aspirated and the biofilm was measured by optical density at 600 nm. […]
(§4) Bacterial strains were streaked on Blood Agar plates (5% sheep blood in Tryptic Soy Agar) and incubated at 37° C. for 24 hours. […] Media was carefully aspirated and the biofilm was measured by optical density at 600 nm. […]

The test system of assay [2] is fungal and bacterial biofilms. Description: Biofilm assays (sustained inhibition and disruption), fungal and bacterial biofilms. It is filed as cell-based. Conditions: single component on its own. How it is done:
as §1, §2
All biofilm assays were performed using 384-well non-tissue culture treated polystyrene plates. The fungal species tested are as follows: Candida albicans, Candida guilhermondii, Candida parapsilosis, Candida glabrata, Candida tropicalis, Candida dubliniensis, and Candida auris. The bacterial species tested are as follows: Staphylococcus aureus (standard wild type and methicillin-resistant strain USA300), Escherichia coli, Pseudomonas aeruginosa and Staphylococcus epidermidis.
Fungal strains were streaked on Yeast Peptone Dextrose (YPD) agar plates and incubated at 30° C. for 48 hours. A single colony from each strain to be tested was inoculated into YPD broth and grown for 12 hours, at 30° C., shaking at 225 rpm. For the fungal biofilm inhibition assay, 1 μl of saturated overnight cell culture was added to either 80 μL of RPMI-1640 or RPMI-1640 supplemented with the amino acid compound solution to be tested, in a 384-well plate. The cells were allowed to adhere to the plate for 90 minutes at 37° C. with shaking (350 rpm). Loosely bound cells were washed once with phosphate buffered saline (PBS) and 80 ul of RPMI-1640, or RPMI-1640 supplemented with the amino acid compound solution was added to the plate. The plate was further incubated for 24 hours at 37° C. with shaking (350 rpm). Media was carefully aspirated and the biofilm was measured by optical density at 600 nm. Twelve replicates were performed for each tested condition and the reported values are normalized to the control (RPMI-1640 media only). For the fungal biofilm disruption assays, 80 μL of RPMI-1640 was added to the plate, along with 1 μL of overnight cell culture. The cells were allowed to adhere to the plate for 90 minutes at 37° C. with shaking (350 rpm). Loosely bound cells were washed once with PBS and 80 μL of RPMI-1640 was added to the plate. The plate was further incubated for 24 hours at 37° C. with shaking (350 rpm). Media was carefully aspirated from the mature biofilm and 80 μL of RPMI-1640, or RPMI-1640 supplemented with the amino acid compound solution to be tested, was gently added to the plate. The plate was further incubated for 24 hours at 37° C. with shaking (350 rpm). Media was carefully aspirated and the biofilm was measured by optical density at 600 nm. Twelve replicates were performed for each tested condition and the reported values are normalized to the control (RPMI-1640 media only).
Bacterial strains were streaked on Blood Agar plates (5% sheep blood in Tryptic Soy Agar) and incubated at 37° C. for 24 hours. A single colony from each strain to be tested was inoculated in a TSB broth and grown for 12 hours, at 37° C. with shaking (225 rpm).

Assay [3] concerns C. albicans. In words: Sustained inhibition biofilm assay, fungal. It is filed as cell-based, Candida albicans. Conditions: sustained inhibition assay; C. albicans; 1% amino acid (unless specifically noted); p≤0.001. How it is done: (§5) Two types of biofilm assays were performed: a sustained inhibition assay and a disruption assay. The sustained inhibition assay assesses the compound's ability to prevent biofilm development throughout all stages of biofilm formation, while the disruption assay assesses the compound's ability to break up an existing mature biofilm. These assays are described in detail in the following article: Lohse, M. B., Gulati, M., Valle Arevalo, A., Fishburn, A., Johnson, A. D., and Nobile, C. […] Antimicrobial Agents and Chemotherapy 61: e02749-16.
(§6) All bacterial biofilm solutions were prepared in Trypic Soy Broth (TSB), supplemented with 1% glucose (henceforth referred to as TSB-G). All subsequent procedures were performed in a manner that maintained sterility. A solution of each amino acid to be tested was prepared in weight to volume concentrations ranging from 0.1-5.0%. Amino acids were also tested in combinations. Compound solutions were homogenized with gentle agitation in the dark (4° C., 24 hours) before use.
(§7) Fungal strains were streaked on Yeast Peptone Dextrose (YPD) agar plates and incubated at 30° C. for 48 hours. A single colony from each strain to be tested was inoculated into YPD broth and grown for 12 hours, at 30° C., shaking at 225 rpm. […] The cells were allowed to adhere to the plate for 90 minutes at 37° C. with shaking (350 rpm). […] The plate was further incubated for 24 hours at 37° C. with shaking (350 rpm). Media was carefully aspirated and the biofilm was measured by optical density at 600 nm. […] The cells were allowed to adhere to the plate for 90 minutes at 37° C. with shaking (350 rpm). […] The plate was further incubated for 24 hours at 37° C. with shaking (350 rpm). […] The plate was further incubated for 24 hours at 37° C. with shaking (350 rpm). Media was carefully aspirated and the biofilm was measured by optical density at 600 nm.

Assay [4] deals with C. albicans. In words: Disruption biofilm assay, fungal. Conditions: disruption assay; C. albicans; 1% amino acid (unless specifically noted); p≤0.001. It is filed as cell-based, Candida albicans. How it is done:
as §5, §6, §7

In assay [5] the test system is bacteria (S. aureus) biofilm and fungal (C. albicans) biofilm. Description: Disruption biofilm assay, bacterial and fungal taken together. In kind it is cell-based. Conditions: disruption assay; bacterial and fungal biofilm; 1% amino acid (unless specifically noted); p≤0.001. How it is done: as §1, §2, §3, §4

For `N[C@@H](CC(=O)O)C(=O)O` [Aspartic Acid, L-aspartic acid], the “Reduce Both” value in assay [1] and in assay [5] was “●● (two dots [ie. ••] signifies major effect (greater than about 30% change))” in each case. For the same molecule, the Effect on biofilms result in assay [2] is on record as “very active against biofilms”. For the same molecule, the “Reduce F Biofilm” value in the assay on C. albicans [3] and in the assay with C. albicans [4] was “●● (two dots [ie. ••] signifies major effect (greater than about 30% change))” in each case.
